Assays:
Type in all cases: functional
UO-31 = test: Cytotoxicity against Homo sapiens (human) UO31 cells assessed as growth inhibition at 10 uM after 48 hr by coulter counter analysis; conditions: UO-31, 48 h, read-out: GI
COLO 205 = test: Cytotoxicity against Homo sapiens (human) COLO205 cells assessed as growth inhibition at 10 uM after 48 hr by coulter counter analysis; conditions: COLO 205, 48 h, read-out: GI
A549 = test: Cytotoxicity against Homo sapiens (human) A549 cells assessed as growth inhibition at 10 uM after 48 hr by coulter counter analysis; conditions: A549, 48 h, read-out: GI
SF-268 = test: Cytotoxicity against Homo sapiens (human) SF268 cells assessed as growth inhibition at 10 uM after 48 hr by coulter counter analysis; conditions: SF-268, 48 h, read-out: GI
M14 = test: Cytotoxicity against Homo sapiens (human) M14 cells assessed as growth inhibition at 10 uM after 48 hr by coulter counter analysis; conditions: M14, 48 h, read-out: GI
HOP-62 = test: Cytotoxicity against Homo sapiens (human) HOP62 cells assessed as growth inhibition at 10 uM after 48 hr by coulter counter analysis; conditions: HOP-62, 48 h, read-out: GI
K562 = test: Cytotoxicity against Homo sapiens (human) K562 cells assessed as growth inhibition at 10 uM after 48 hr by coulter counter analysis; conditions: K562, 48 h, read-out: GI
MDA-MB-468 = test: Cytotoxicity against Homo sapiens (human) MDA-MB-468 cells assessed as growth inhibition at 10 uM after 48 hr by coulter counter analysis; conditions: MDA-MB-468, 48 h, read-out: GI
SK-MEL-28 = test: Cytotoxicity against Homo sapiens (human) SK-MEL-28 cells assessed as growth inhibition at 10 uM after 48 hr by coulter counter analysis; conditions: SK-MEL-28, 48 h, read-out: GI
MOLT-4 = test: Cytotoxicity against Homo sapiens (human) MOLT4 cells assessed as growth inhibition at 10 uM after 48 hr by coulter counter analysis; conditions: MOLT-4, 48 h, read-out: GI
NCI-H23 = test: Cytotoxicity against Homo sapiens (human) NCI-H23 cells assessed as growth inhibition at 10 uM after 48 hr by coulter counter analysis; conditions: NCI-H23, 48 h, read-out: GI
Malme-3M = test: Cytotoxicity against Homo sapiens (human) MALME-3M cells assessed as growth inhibition at 10 uM after 48 hr by coulter counter analysis; conditions: read-out: GI
LOX IMVI = test: Cytotoxicity against Homo sapiens (human) LOXIMVI cells assessed as growth inhibition at 10 uM after 48 hr by coulter counter analysis; conditions: read-out: GI
SN12C = test: Cytotoxicity against Homo sapiens (human) SN12C cells assessed as growth inhibition at 10 uM after 48 hr by coulter counter analysis; conditions: read-out: GI
OVCAR-8 = test: Cytotoxicity against Homo sapiens (human) OVCAR8 cells assessed as growth inhibition at 10 uM after 48 hr by coulter counter analysis; conditions: OVCAR-8, 48 h, read-out: GI
SR = test: Cytotoxicity against Homo sapiens (human) SR cells assessed as growth inhibition at 10 uM after 48 hr by coulter counter analysis; conditions: read-out: GI
HCT-15 = test: Cytotoxicity against Homo sapiens (human) HCT15 cells assessed as growth inhibition at 10 uM after 48 hr by coulter counter analysis; conditions: HCT-15, 48 h, read-out: GI
NCI-H522 = test: Cytotoxicity against Homo sapiens (human) NCI-H522 cells assessed as growth inhibition at 10 uM after 48 hr by coulter counter analysis; conditions: NCI-H522, 48 h, read-out: GI
SK-MEL-2 = test: Cytotoxicity against Homo sapiens (human) SK-MEL-2 cells assessed as growth inhibition at 10 uM after 48 hr by coulter counter analysis; conditions: SK-MEL-2, 48 h, read-out: GI
IGROV-1 = test: Cytotoxicity against Homo sapiens (human) IGROV1 cells assessed as growth inhibition at 10 uM after 48 hr by coulter counter analysis; conditions: IGROV-1, 48 h, read-out: GI
PC-3 = test: Cytotoxicity against Homo sapiens (human) PC3 cells assessed as growth inhibition at 10 uM after 48 hr by coulter counter analysis; conditions: PC-3, 48 h, read-out: GI
HT-29 = test: Cytotoxicity against Homo sapiens (human) HT-29 cells assessed as growth inhibition at 10 uM after 48 hr by coulter counter analysis; conditions: HT-29, 48 h, read-out: GI
TK-10 = test: Cytotoxicity against Homo sapiens (human) TK10 cells assessed as growth inhibition at 10 uM after 48 hr by coulter counter analysis; conditions: TK-10, 48 h, read-out: GI
RPMI-8226 = test: Cytotoxicity against Homo sapiens (human) RPMI8226 cells assessed as growth inhibition at 10 uM after 48 hr by coulter counter analysis; conditions: RPMI-8226, 48 h, read-out: GI
SNB-19 = test: Cytotoxicity against Homo sapiens (human) SNB19 cells assessed as growth inhibition at 10 uM after 48 hr by coulter counter analysis; conditions: SNB-19, 48 h, read-out: GI
HCT-116 = test: Cytotoxicity against Homo sapiens (human) HCT116 cells assessed as growth inhibition at 10 uM after 48 hr by coulter counter analysis; conditions: HCT-116, 48 h, read-out: GI
ACHN = test: Cytotoxicity against Homo sapiens (human) ACHN cells assessed as growth inhibition at 10 uM after 48 hr by coulter counter analysis; conditions: read-out: GI
MCF7 = test: Cytotoxicity against Homo sapiens (human) MCF7 cells assessed as growth inhibition at 10 uM after 48 hr by coulter counter analysis; conditions: MCF7, 48 h, read-out: GI
NCI-H460 = test: Cytotoxicity against Homo sapiens (human) NCI-H460 cells assessed as growth inhibition at 10 uM after 48 hr by coulter counter analysis; conditions: NCI-H460, 48 h, read-out: GI
786-0 = test: Cytotoxicity against Homo sapiens (human) 786-0 cells assessed as growth inhibition at 10 uM after 48 hr by coulter counter analysis; conditions: 786-0, 48 h, read-out: GI
OVCAR-5 = test: Cytotoxicity against Homo sapiens (human) OVCAR5 cells assessed as growth inhibition at 10 uM after 48 hr by coulter counter analysis; conditions: OVCAR-5, 48 h, read-out: GI
HOP-92 = test: Cytotoxicity against Homo sapiens (human) HOP92 cells assessed as growth inhibition at 10 uM after 48 hr by coulter counter analysis; conditions: HOP-92, 48 h, read-out: GI
DU-145 = test: Cytotoxicity against Homo sapiens (human) DU145 cells assessed as growth inhibition at 10 uM after 48 hr by coulter counter analysis; conditions: DU-145, 48 h, read-out: GI
BT-549 = test: Cytotoxicity against Homo sapiens (human) BT549 cells assessed as growth inhibition at 10 uM after 48 hr by coulter counter analysis; conditions: BT-549, 48 h, read-out: GI

SMILES | inhibition of growth at 10 µM (UO-31) [%] | inhibition of growth at 10 µM (COLO 205) [%] | inhibition of growth at 10 µM (A549) [%] | inhibition of growth at 10 µM (SF-268) [%] | inhibition of growth at 10 µM (M14) [%] | inhibition of growth at 10 µM (HOP-62) [%] | inhibition of growth at 10 µM (K562) [%] | inhibition of growth at 10 µM (MDA-MB-468) [%] | inhibition of growth at 10 µM (SK-MEL-28) [%] | inhibition of growth at 10 µM (MOLT-4) [%] | inhibition of growth at 10 µM (NCI-H23) [%] | inhibition of growth at 10 µM (Malme-3M) [%] | inhibition of growth at 10 µM (LOX IMVI) [%] | inhibition of growth at 10 µM (SN12C) [%] | inhibition of growth at 10 µM (OVCAR-8) [%] | inhibition of growth at 10 µM (SR) [%] | inhibition of growth at 10 µM (HCT-15) [%] | inhibition of growth at 10 µM (NCI-H522) [%] | inhibition of growth at 10 µM (SK-MEL-2) [%] | inhibition of growth at 10 µM (IGROV-1) [%] | also measured
COc1ccc(-c2nc3c(c(=O)[nH]2)C(c2ccc(OC)c(OC)c2)C2=C(CCCC2)N3)cc1OC (stereo not given) | 66.3 | 10.3 | < 10 | 12.2 | < 10 | 12.3 | < 10 | 28.5 | < 10 | < 10 | < 10 | < 10 | 21.1 | 15 | 12.1 | 21.4 | 10.7 | 25.8 | < 10 | < 10 | inhibition of growth at 10 µM (PC-3): 17.1%; inhibition of growth at 10 µM (HT-29): < 10%; inhibition of growth at 10 µM (TK-10): < 10%; inhibition of growth at 10 µM (RPMI-8226): 10.8%; inhibition of growth at 10 µM (SNB-19): < 10%; inhibition of growth at 10 µM (HCT-116): < 10%; inhibition of growth at 10 µM (ACHN): 28.8%; inhibition of growth at 10 µM (MCF7): 34.3%; inhibition of growth at 10 µM (NCI-H460): < 10%; inhibition of growth at 10 µM (786-0): < 10%; inhibition of growth at 10 µM (OVCAR-5): < 10%; inhibition of growth at 10 µM (HOP-92): 26.3%; inhibition of growth at 10 µM (DU-145): < 10%
Oc1ccc(-c2nc3c4c(ncn3n2)NC2=C(CCCC2)C4c2ccc(Cl)cc2)cc1 (stereo not given) | 29 | < 10 | < 10 | < 10 | < 10 | 16.6 | < 10 | < 10 | < 10 | < 10 | 12.9 | 13 | 14.3 | < 10 | < 10 | < 10 | < 10 | < 10 | < 10 | < 10 | inhibition of growth at 10 µM (PC-3): 10.4%; inhibition of growth at 10 µM (HT-29): < 10%; inhibition of growth at 10 µM (TK-10): < 10%; inhibition of growth at 10 µM (BT-549): < 10%; inhibition of growth at 10 µM (RPMI-8226): 13.2%; inhibition of growth at 10 µM (SNB-19): < 10%; inhibition of growth at 10 µM (HCT-116): < 10%; inhibition of growth at 10 µM (ACHN): < 10%; inhibition of growth at 10 µM (MCF7): < 10%; inhibition of growth at 10 µM (NCI-H460): < 10%; inhibition of growth at 10 µM (786-0): < 10%; inhibition of growth at 10 µM (OVCAR-5): < 10%; inhibition of growth at 10 µM (HOP-92): 42.1%; inhibition of growth at 10 µM (DU-145): < 10%
COc1ccc(C2C3=C(CCCC3)Nc3ncn4nc(-c5ccccc5)nc4c32)cc1OC (stereo not given) | 38.7 | < 10 | 12.3 | < 10 | < 10 | < 10 | < 10 | 23.2 | < 10 | 19.8 | 10.7 | < 10 | < 10 | < 10 | 14.7 | < 10 | 13.1 | 31.4 | < 10 | < 10 | inhibition of growth at 10 µM (PC-3): 19.8%; inhibition of growth at 10 µM (HT-29): < 10%; inhibition of growth at 10 µM (TK-10): < 10%; inhibition of growth at 10 µM (BT-549): < 10%; inhibition of growth at 10 µM (RPMI-8226): 10.5%; inhibition of growth at 10 µM (SNB-19): < 10%; inhibition of growth at 10 µM (HCT-116): < 10%; inhibition of growth at 10 µM (ACHN): 20%; inhibition of growth at 10 µM (MCF7): < 10%; inhibition of growth at 10 µM (NCI-H460): < 10%; inhibition of growth at 10 µM (786-0): < 10%; inhibition of growth at 10 µM (OVCAR-5): 11.7%; inhibition of growth at 10 µM (HOP-92): 36.8%; inhibition of growth at 10 µM (DU-145): < 10%
COc1ccc(C2C3=C(CCCC3)Nc3ncn4nc(-c5ccc(O)cc5)nc4c32)cc1OC (stereo not given) | 29.3 | < 10 | < 10 | < 10 | < 10 | < 10 | < 10 | 21.4 | < 10 | 12.3 | < 10 | < 10 | < 10 | < 10 | < 10 | < 10 | < 10 | 16.4 | < 10 | < 10 | inhibition of growth at 10 µM (PC-3): < 10%; inhibition of growth at 10 µM (HT-29): < 10%; inhibition of growth at 10 µM (TK-10): < 10%; inhibition of growth at 10 µM (BT-549): < 10%; inhibition of growth at 10 µM (RPMI-8226): < 10%; inhibition of growth at 10 µM (SNB-19): < 10%; inhibition of growth at 10 µM (HCT-116): < 10%; inhibition of growth at 10 µM (ACHN): < 10%; inhibition of growth at 10 µM (MCF7): < 10%; inhibition of growth at 10 µM (NCI-H460): < 10%; inhibition of growth at 10 µM (786-0): < 10%; inhibition of growth at 10 µM (OVCAR-5): < 10%; inhibition of growth at 10 µM (HOP-92): 12.2%; inhibition of growth at 10 µM (DU-145): < 10%
